Experimental data published in patent US20220354963A1, “EXTRACELLULAR VESICLE LINKED TO MOLECULES AND USES THEREOF” (Codiak BioSciences, Inc., priority 2019, published 2022).

Legend:
STAT3 mRNA [1] = assay: STAT3 mRNA expression in IL-6 stimulated PANC-1 cells, branched DNA assay; assay type: cell-based, human; conditions: 5 point DR data
STAT3 mRNA [2] = assay: as above; assay type: cell-based, human; conditions: for STAT3 Inhibition 2 nM / STAT3 Inhibition 20 nM: 2 point DR data; for IC50: 5 point DR data, Lipofectamine2000 transfection, 48 hr, read-out: STAT3 PANC1 IC50 Prism
Method: The ASOs of the present disclosure were tested for their ability to reduce STAT3 mRNA expression in IL-6 stimulated PANC-1 cells. The PANC-1 cells were grown in cell culture media and seeded onto a 96 well plate at a density of 20,000 cells/well. ASOs were tested in two separate cohorts: 2 doses or 5 doses were given to the PANC-1 cells (See TABLE 3) at final concentrations of 20 nM and 2 nM, respectively. The assay used Lipofectamine2000 transfection and a 48 hr treatment cycle, with incubation at 37° C. and 5% C02. Analysis of the mRNA expression was then carried out using a branched DNA assay.

GAPDH = GAPDH inhibition in PANC-1 cells, same assay; assay type: cell-based, human; conditions: 2 point DR data
Method: The PANC-1 cells were grown in cell culture media and seeded onto a 96 well plate at a density of 20,000 cells/well. ASOs were tested in two separate cohorts: 2 doses or 5 doses were given to the PANC-1 cells (See TABLE 3) at final concentrations of 20 nM and 2 nM, respectively. The assay used Lipofectamine2000 transfection and a 48 hr treatment cycle, with incubation at 37° C. and 5% C02. Analysis of the mRNA expression was then carried out using a branched DNA assay.

IL-1β = assay: In vivo peritonitis model, intraperitoneal LPS challenge, serum IL-1β; parameters: species or system mouse; conditions: pre-treatment intraperitoneally 1 hour prior to challenge; 3 hours post-challenge
Method: Intraperitoneal LPS challenge induces the production of IL-1β in mice, which can be detected in the systemic circulation 3 hours post-challenge.

Compound	STAT3 Max inihibition 24 nM (STAT3 mRNA [1])	STAT3 Inhibition 2 nM (STAT3 mRNA [2])	STAT3 Inhibition 20 nM (STAT3 mRNA [2])	IC50 (STAT3 mRNA [2])	GAPDH Inhibition 20 nM (GAPDH)	induction of IL-1β in the serum of LPS-challenged mice (IL-1β)
116 (CTCCTGTTGATCGCAGCGAA; chemistry not given here) [compound 116]	69.78	64.5	85.5	1.85 nM	16.00	
CC(C)(O)c1coc(S(=O)(=O)NC(=O)Nc2c3c(cc4c2CCC4)CCC3)c1 [MCC950]						inhibited
112 (GCGAAGATCCACACGGCCAT; chemistry not given here) [compound 112]	86.32	70.0	91.0	1.04 nM	−25.00	
115 (CTGTTGATCGCAGCGAAGAT; chemistry not given here) [compound 115]	78.99	65.2	90.8	0.796 nM	3.00	
125 (CACGTACTTTCTGTACTTCT; chemistry not given here) [compound 125]	81.67	61.7	85.1	2.3 nM	14.00	
107 (TAGCGTGGCTAGATCCACAT; chemistry not given here) [compound 107]	70.92	79.0	87.7	0.037 nM	8.00	
131 (AGTCGTGTGTAGCGTTTGTT; chemistry not given here) [compound 131]	75.20	58.9	90.7	2.83 nM	12.00	
103 (CTCCTGTTGGCTCGATCCAG; chemistry not given here) [compound 103]	89.93	82.5	95.8	0.465 nM	10.00	
138 (CCATCTTAATGGGACTCACG; chemistry not given here) [compound 138]	85.33	53.0	86.8	1.31 nM	9.00	
114 (GTTGATCGCAGCGAAGATCC; chemistry not given here) [compound 114]	84.94	66.4	87.0	0.814 nM	10.00	
124 (ATAGAGATTCTCGAAAGGTA; chemistry not given here) [compound 124]	86.46	62.6	83.3	1.6 nM	13.00	
142 (GGCAGCAGCTCATGATCAGG; chemistry not given here) [compound 142]	76.10	51.7	80.0	6.76 nM	9.00	
137 (ATCTTAATGGGACTCACGGG; chemistry not given here) [compound 137]	79.46	53.0	87.4	1.8 nM	−2.00	
128 (ACCCAGACGGGCATTCCTGT; chemistry not given here) [compound 128]	79.56	61.1	81.1	3.56 nM	19.00	
130 (TGTAGCGTTTGTTGAGGCTC; chemistry not given here) [compound 130]	72.16	59.3	80.7	1.68 nM	13.00	
139 (ACTCCATCTTAATGGGACTC; chemistry not given here) [compound 139]	72.50	52.8	83.4	4.02 nM	10.00	
135 (ACGTCTTGGTCTTGCCGATG; chemistry not given here) [compound 135]	78.59	53.9	84.2	1.05 nM	4.00	
105 (GGATAGTCCTCTAAGTGCAT; chemistry not given here) [compound 105]	85.61	79.4	91.6	1.47 nM	13.00	
134 (CGCAGTCGTGTGTAGCGTTT; chemistry not given here) [compound 134]	77.94	54.3	82.8	2.13 nM	10.00	
120 (ATTATCTGAACCCCACTTCG; chemistry not given here) [compound 120]	87.43	62.8	93.4	2.05 nM	12.00	
126 (TGGAATCTGCTTCTCACGTA; chemistry not given here) [compound 126]	87.71	61.4	90.7	2.78 nM	13.00	
102 (TTGGCTCGATCCAGGAGTGT; chemistry not given here) [compound 102]	78.02	82.7	89.5	0.473 nM	16.00	
133 (GCAGTCGTGTGTAGCGTTTG; chemistry not given here) [compound 133]	81.73	55.9	90.7	2.24 nM	14.00	
145 (GTCCTATGTGCTCGTCAAAG; chemistry not given here) [compound 145]	85.73	50.2	89.2	3.06 nM	17.00	
